The source of these data is patent publication US8293774B2, “Optically active (R)-aryloxypropionic acid amides and herbicidal composition comprising same” (Kyung Nong Corporation, priority 2007, dated 2012).

For data set [1], the system named is GLXMA (Glycine max(L.) MERR, soy bean). In words: Weed control test, foliage treatment (Test Example 1, Table 7). The settings on record: in vivo. The procedure:
(§1) Seeds of rice, wheat, soy bean, barley, corn, common sorgum, barnyard grass, large crabgrass, creek grass, green foxtail and fall panicum were placed in sandy loam in 600 cm^2 pots and covered with soil. After keeping the pots in a greenhouse at 20 to 30° C. allowing growth of the plants to the 3-leaf stage of the barnyard grass, 2,000 l/ha of an emulsion obtained by diluting with water a mixture of 1 part by weight of a test compound, 5 parts by weight of acetone and 1 part by weight of an emulsifying agent (Tween 80, Junsei) was applied to the surface of the foliage of the plants. The plant damage at 10 days and 20 days after the foliage treatment was visually evaluated from the level of 1 to 100% by comparison with the untreated control: […]

Data set [2] has as its system HORVU (Hordeum vulgare L., barley). The data set is described as above. Conditions: in vivo. As to the method:
as §1

Data set [3] relates to ORYSA (Oryza sativa cv. Dongjin, rice). Described as above. Conditions: in vivo. As to the method:
as §1

In data set [4] the test system is TRZAW (Tritium aestivum L., wheat). The data set is described as above. The settings on record: in vivo. As to the method:
as §1

The test system of data set [5] is ARTHIS (Arthraxon hispidus (Thunb.) Makino, creek grass). Described as above. Type of data set: in vivo. Conditions: Arthraxon hispidus, foliar, read-out: Plant damage (herbicidal activity), visually evaluated, ARTHIS; for pest or weed control at 25 g/ha: 0.025 kg/ha; for pest or weed control at 100 g/ha: 0.1 kg/ha; for pest or weed control at 200 g/ha: 0.2 kg/ha. As to the method:
as §1

Data set [6] deals with DIGSA (Digitaria Sanguinalis (L.) SCOP, large crabgrass). The description is as above. Conditions: Digitaria sanguinalis, foliar, read-out: Plant damage (herbicidal activity), visually evaluated, DIGSA; for pest or weed control at 25 g/ha: 0.025 kg/ha; for pest or weed control at 100 g/ha: 0.1 kg/ha; for pest or weed control at 200 g/ha: 0.2 kg/ha. Type of data set: in vivo. The procedure: as §1

Data set [7] relates to ECHOG (Echinoch crus-galli Beauv. var. caudata Kitagawa, barnyard grass). The data set is described as above. Type of data set: in vivo. The settings on record: Echinochloa crus-galli, foliar, 3-leaf stage, read-out: Plant damage (herbicidal activity), visually evaluated, ECHOG; for pest or weed control at 25 g/ha: 0.025 kg/ha; for pest or weed control at 100 g/ha: 0.1 kg/ha; for pest or weed control at 200 g/ha: 0.2 kg/ha. The procedure: as §1

The test system of data set [8] is PANDI (Panium dichotomiflorum Michx, fall panicum). The description is as above. Type of data set: in vivo. Conditions: Panicum dichotomiflorum, foliar, read-out: Plant damage (herbicidal activity), visually evaluated, PANDI; for pest or weed control at 25 g/ha: 0.025 kg/ha; for pest or weed control at 100 g/ha: 0.1 kg/ha; for pest or weed control at 200 g/ha: 0.2 kg/ha. As to the method: as §1

Data set [9] relates to SETVIR (Setaria viridis (L.) Beauv, green foxtail). The description is as above. Type of data set: in vivo. The settings on record: Setaria viridis, foliar, read-out: Plant damage (herbicidal activity), visually evaluated, SETVIR; for pest or weed control at 25 g/ha: 0.025 kg/ha; for pest or weed control at 100 g/ha: 0.1 kg/ha; for pest or weed control at 200 g/ha: 0.2 kg/ha. The procedure:
as §1

The subject of data set [10] is SORBI (Andropogon sorghum, common sorgum). Described as above. In kind it is in vivo. The settings on record: Sorghum bicolor, foliar, read-out: Plant damage (herbicidal activity), visually evaluated, SORBI; for pest or weed control at 25 g/ha: 0.025 kg/ha; for pest or weed control at 100 g/ha: 0.1 kg/ha; for pest or weed control at 200 g/ha: 0.2 kg/ha. The procedure: as §1

Data set [11] relates to ZEAMX (Zea mays L., corn). The data set is described as above. In kind it is in vivo. The settings on record: Zea mays, foliar, read-out: Plant damage (herbicidal activity), visually evaluated, ZEAMX; for plant injury at 25 g/ha: 0.025 kg/ha; for plant injury at 100 g/ha: 0.1 kg/ha; for plant injury at 200 g/ha: 0.2 kg/ha. The procedure: as §1
For a further data set, the system named is Barnyard grass. The data set is described as follows: Weed control test, 4-leaf stage plants (Test Example 1, Table 8). Type of data set: in vivo, Echinoch crus-galli Beauv. var. caudata Kitagawa.
Description: as §1, with “[…],” for “After keeping the pots in a greenhouse at 20 to 30° C. allowing growth of the plants to the 3-leaf stage of the barnyard grass,”

As to `C[C@@H](Oc1ccc(Oc2ccc(C#N)cc2F)cc1)C(=O)Nc1nc2ccccc2s1` [Example 19, (R)-2-[4-(4-cyano-2-fluorophenoxy)phenoxy]propionic acid-N-(2-benzothiazolyl)amide], the “Plant damage (herbicidal activity), visually evaluated, GLXMA” value (from here on “Plant damage (herbicidal activity) … GLXMA”) in data set [1] amounted to 0%. In addition, in data set [2], the “Plant damage (herbicidal activity), visually evaluated, HORVU” value (“Plant damage (herbicidal activity) … HORVU” for short) is 0%. In addition, in [3], the “Plant damage (herbicidal activity), visually evaluated, ORYSA” value is reported as 0%. Besides, the “Plant damage (herbicidal activity), visually evaluated, TRZAW” value (“Plant damage (herbicidal activity) … TRZAW” for short) in data set [4] worked out at 0%. Also, the pest or weed control at 25 g/ha in data set [5] amounted to 0%; in [6], 0%; in data set [7], 0%; in data set [8], 0%; in data set [9] it was 0%; in data set [10], 20%. The pest or weed control at 100 g/ha in [5] was 10%; in data set [6], 10%; in data set [7] it was 20%; in [8], 0%; in data set [9], 10%; in data set [10], 60%. Moreover, the pest or weed control at 200 g/ha in [5] is 10%; in data set [6], 30%; in data set [7] it was 30%; in [8], 0%; in data set [9], 10%; in [10], 70%. Besides, the plant injury at 25 g/ha in data set [11] came to 0%. Besides, the plant injury at 100 g/ha in [11] turned out to be 10%. Further, the plant injury at 200 g/ha in data set [11] stood at 30%.

On to `C[C@@H](Oc1ccc(Oc2ccc(C#N)cc2F)cc1)C(=O)Nc1nc2ccc(Cl)cc2s1` [Example 21, (R)-2-[4-(4-cyano-2-fluorophenoxy)phenoxy]propionic acid-N-(6-chloro-2-benzothiazolyl)amide], for which the “Plant damage (herbicidal activity) … GLXMA” value in [1] is recorded as 0%. For the same compound, the “Plant damage (herbicidal activity) … HORVU” value in [2] is listed as 0%. Besides, the “Plant damage (herbicidal activity), visually evaluated, ORYSA” value in [3] was 0%. Further, in [4], the “Plant damage (herbicidal activity) … TRZAW” value amounted to 0%. Further, the pest or weed control at 25 g/ha in [5] is 0%; in data set [6], 0%; in data set [7], 20%; in data set [8], 0%; in data set [9] it was 0%; in data set [10] it was 0%. In addition, the pest or weed control at 100 g/ha in data set [5] came to 70%; in data set [6], 20%; in [7], 70%; in [8] it was 70%; in data set [9], 70%; in data set [10], 20%. The pest or weed control at 200 g/ha is 70% in [5]; 90% in [6]; 90% in data set [7]; 70% in data set [8]; 90% in data set [9]; 50% in data set [10]. Also, the plant injury at 25 g/ha in [11] is 20%. The plant injury at 100 g/ha in [11] amounted to 90%. Besides, the plant injury at 200 g/ha in data set [11] came out at 100%.

Take `COc1ccc2nc(NC(=O)[C@@H](C)Oc3ccc(Oc4ccc(C#N)cc4F)cc3)sc2c1` [Example 27, (R)-2-[4-(4-cyano-2-fluorophenoxy)phenoxy]propionic acid-N-(6-methoxy-2-benzothiazolyl)amide]: the “Plant damage (herbicidal activity) … GLXMA” value in data set [1] was 0%. Besides, the “Plant damage (herbicidal activity) … HORVU” value in [2] is listed as 0%. Further, in [4], the “Plant damage (herbicidal activity) … TRZAW” value was determined as 0%. The pest or weed control at 25 g/ha was determined as 0% in [5]; 0% in data set [6]; 20% in data set [7]; 0% in [8]; 0% in data set [9]; 0% in data set [10]. Besides, the pest or weed control at 100 g/ha was 0% in data set [5]; 20% in data set [6]; 70% in data set [7]; 0% in data set [8]; 0% in data set [9]; 20% in data set [10]. In addition, the pest or weed control at 200 g/ha in data set [5] came to 10%; in data set [6], 90%; in data set [7], 90%; in [8] it was 10%; in data set [9], 20%; in data set [10] it was 20%. Moreover, in data set [11], the plant injury at 25 g/ha amounted to 10%. For the same compound, in data set [11], the plant injury at 100 g/ha turned out to be 90%. In data set [11], the plant injury at 200 g/ha worked out at 90%.

`Cc1ccnc(NC(=O)[C@@H](C)Oc2ccc(Oc3ccc(C#N)cc3F)cc2)c1` [Example 33, (R)-2-[4-(4-cyano-2-fluorophenoxy)phenoxy]propionic acid-N-(4-methyl-2-pyridinyl)amide]: the “Plant damage (herbicidal activity), visually evaluated, Barnyard grass” value in the data set with Barnyard grass (0.025 kg/ha) turned out to be 10%; in the data set on Barnyard grass (0.05 kg/ha) it was 40%; with Barnyard grass (0.1 kg/ha), 100%; with Barnyard grass (0.4 kg/ha), 100%.

On to `C[C@@H](Oc1ccc(OC(F)=Cc2ccc(F)cc2)cc1)C(=O)Nc1nc2cc(Cl)ccc2o1` [Example 52, (R)-2-[4-(1-fluoro-2-(4-fluorophenyl)vinyloxy)phenoxy]propionic acid-N-(5-chloro-2-benzoxazolyl)amide], for which, in data set [1], the “Plant damage (herbicidal activity) … GLXMA” value is reported as 0%. In addition, the “Plant damage (herbicidal activity) … HORVU” value in [2] is 0%. Further, the “Plant damage (herbicidal activity) … TRZAW” value in data set [4] is on record as 0%. Moreover, the pest or weed control at 25 g/ha in data set [5], in data set [6], in data set [7], in data set [8], in [9] and in [10] was 0% throughout. Also, the pest or weed control at 100 g/ha in [5], in data set [6], in data set [7], in data set [8], in data set [9] and in [10] was 0% throughout. In addition, the pest or weed control at 200 g/ha is 0% in [5]; 10% in [6]; 20% in [7]; 0% in [8]; 10% in data set [9]; 0% in [10]. Besides, in [11], the plant injury at 25 g/ha is 10%. Besides, in data set [11], the plant injury at 100 g/ha worked out at 30%. Besides, the plant injury at 200 g/ha in data set [11] was 30%.
